Experimental data reported in US11459323B2, “Monocyclic β-lactam compound for treating bacterial infection” (MEDSHINE DISCOVERY INC., priority 2018, dated 2022).
Converted amounts (≈) assume the structure as drawn. Blank lines part the entries; values can stand above or below the compound they belong to.

Assays:
Test in all cases: MIC on clinically isolated bacteria
Format in all cases: cell-based
[1] = test system: Acinetobacter baumannii C394; conditions: Acinetobacter baumannii C394; read-out: Minimum Inhibitory Concentration (MIC)
Excerpt: (§1) Twenty-five strains of clinically isolated Acinetobacter baumannii and twenty-seven strains of Pseudomonas aeruginosa were respectively selected and used to determine the minimum inhibitory concentration (MIC) of the compounds by micro-liquid dilution method according to the Institute of Clinical and Laboratory Standard (CLSI) requirements.

[2] = test system: Acinetobacter baumannii C270; conditions: Acinetobacter baumannii C270; read-out: Minimum Inhibitory Concentration (MIC)
Excerpt: as §1

[3] = test system: Acinetobacter baumannii C361; conditions: Acinetobacter baumannii C361; read-out: Minimum Inhibitory Concentration (MIC)
Excerpt: as §1

[4] = test system: Pseudomonas aeruginosa W6; conditions: read-out: MIC
Excerpt: as §1

[5] = test system: Acinetobacter baumannii C279; conditions: Acinetobacter baumannii C279; read-out: Minimum Inhibitory Concentration (MIC)
Excerpt: as §1

[6] = test system: Acinetobacter baumannii C402; conditions: Acinetobacter baumannii C402; read-out: Minimum Inhibitory Concentration (MIC)
Excerpt: as §1

[7] = test system: Pseudomonas aeruginosa W28; conditions: read-out: MIC
Excerpt: as §1

[8] = test system: Acinetobacter baumannii C281; conditions: Acinetobacter baumannii C281; read-out: Minimum Inhibitory Concentration (MIC)
Excerpt: as §1

[9] = test system: Acinetobacter baumannii C390; conditions: Acinetobacter baumannii C390; read-out: Minimum Inhibitory Concentration (MIC)
Excerpt: as §1

[10] = test system: Acinetobacter baumannii C330; conditions: Acinetobacter baumannii C330; read-out: Minimum Inhibitory Concentration (MIC)
Excerpt: as §1

[11] = test system: Pseudomonas aeruginosa W47; conditions: read-out: MIC
Excerpt: as §1

[12] = test system: Pseudomonas aeruginosa W1; conditions: read-out: MIC
Excerpt: as §1

[13] = test system: Pseudomonas aeruginosa W32; conditions: read-out: MIC
Excerpt: as §1

[14] = test system: Acinetobacter baumannii C403; conditions: Acinetobacter baumannii C403; read-out: Minimum Inhibitory Concentration (MIC)
Excerpt: as §1

[15] = test system: Pseudomonas aeruginosa W4; conditions: read-out: MIC
Excerpt: as §1

[16] = test system: Acinetobacter baumannii C357; conditions: Acinetobacter baumannii C357; read-out: Minimum Inhibitory Concentration (MIC)
Excerpt: as §1

[17] = test system: Acinetobacter baumannii C251; conditions: Acinetobacter baumannii C251; read-out: Minimum Inhibitory Concentration (MIC)
Excerpt: as §1

[18] = test system: Pseudomonas aeruginosa W13; conditions: read-out: MIC
Excerpt: as §1

[19] = test system: Pseudomonas aeruginosa W21; conditions: read-out: MIC
Excerpt: as §1

[20] = test system: Acinetobacter baumannii C333; conditions: Acinetobacter baumannii C333; read-out: Minimum Inhibitory Concentration (MIC)
Excerpt: as §1

[21] = test system: Pseudomonas aeruginosa W19; conditions: read-out: MIC
Excerpt: as §1

[22] = test system: Pseudomonas aeruginosa W46; conditions: read-out: MIC
Excerpt: as §1

[23] = test system: Acinetobacter baumannii C401; conditions: Acinetobacter baumannii C401; read-out: Minimum Inhibitory Concentration (MIC)
Excerpt: as §1

[24] = test system: Acinetobacter baumannii C319; conditions: Acinetobacter baumannii C319; read-out: Minimum Inhibitory Concentration (MIC)
Excerpt: as §1

[25] = test system: Pseudomonas aeruginosa W27; conditions: read-out: MIC
Excerpt: as §1

[26] = test system: Pseudomonas aeruginosa C755; conditions: read-out: MIC
Excerpt: as §1

[27] = test system: Pseudomonas aeruginosa W24; conditions: read-out: MIC
Excerpt: as §1

[28] = test system: Pseudomonas aeruginosa C754; conditions: read-out: MIC
Excerpt: as §1

[29] = test system: Pseudomonas aeruginosa W20; conditions: read-out: MIC
Excerpt: as §1

[30] = test system: Acinetobacter baumannii C332; conditions: Acinetobacter baumannii C332; read-out: Minimum Inhibitory Concentration (MIC)
Excerpt: as §1

[31] = test system: Pseudomonas aeruginosa W9; conditions: read-out: MIC
Excerpt: as §1

[32] = test system: Acinetobacter baumannii C241; conditions: Acinetobacter baumannii C241; read-out: Minimum Inhibitory Concentration (MIC)
Excerpt: as §1

[33] = test system: Pseudomonas aeruginosa C763; conditions: read-out: MIC
Excerpt: as §1

[34] = test system: Acinetobacter baumannii C328; conditions: Acinetobacter baumannii C328; read-out: Minimum Inhibitory Concentration (MIC)
Excerpt: as §1

[35] = test system: Pseudomonas aeruginosa W42; conditions: read-out: MIC
Excerpt: as §1

[36] = test system: Acinetobacter baumannii C312; conditions: Acinetobacter baumannii C312; read-out: Minimum Inhibitory Concentration (MIC)
Excerpt: as §1

[37] = test system: Pseudomonas aeruginosa C745; conditions: read-out: MIC
Excerpt: as §1

[38] = test system: Pseudomonas aeruginosa W29; conditions: read-out: MIC
Excerpt: as §1

[39] = test system: Acinetobacter baumannii C313; conditions: Acinetobacter baumannii C313; read-out: Minimum Inhibitory Concentration (MIC)
Excerpt: as §1

[40] = test system: Acinetobacter baumannii C181; conditions: Acinetobacter baumannii C181; read-out: Minimum Inhibitory Concentration (MIC)
Excerpt: as §1

[41] = test system: Pseudomonas aeruginosa W35; conditions: read-out: MIC
Excerpt: as §1

MIC [1]: 8 µg/mL (≈ 11.7 µM) | MIC [2]: 8 µg/mL (≈ 11.7 µM) | MIC [3]: 8 µg/mL (≈ 11.7 µM) | MIC [4]: 8 µg/mL (≈ 11.7 µM) | MIC [5]: 8 µg/mL (≈ 11.7 µM) | MIC [6]: 8 µg/mL (≈ 11.7 µM) | MIC [7]: 8 µg/mL (≈ 11.7 µM) | MIC [8]: 8 µg/mL (≈ 11.7 µM) | MIC [9]: 8 µg/mL (≈ 11.7 µM) | MIC [10]: 8 µg/mL (≈ 11.7 µM) | MIC [11]: 8 µg/mL (≈ 11.7 µM) | MIC [12]: 8 µg/mL (≈ 11.7 µM) | MIC [13]: 8 µg/mL (≈ 11.7 µM) | MIC [14]: 16 µg/mL (≈ 23.3 µM) | MIC [15]: 0.5 µg/mL (≈ 0.729 µM) | MIC [16]: 8 µg/mL (≈ 11.7 µM) | MIC [17]: 8 µg/mL (≈ 11.7 µM) | MIC [18]: 1 µg/mL (≈ 1.46 µM) | MIC [19]: 1 µg/mL (≈ 1.46 µM) | MIC [20]: 8 µg/mL (≈ 11.7 µM) | MIC [21]: 4 µg/mL (≈ 5.83 µM) | MIC [22]: 4 µg/mL (≈ 5.83 µM) | MIC [23]: 8 µg/mL (≈ 11.7 µM) | MIC [24]: 8 µg/mL (≈ 11.7 µM) | MIC [25]: 8 µg/mL (≈ 11.7 µM) | MIC [26]: 1 µg/mL (≈ 1.46 µM) | MIC [27]: 8 µg/mL (≈ 11.7 µM) | MIC [28]: 1 µg/mL (≈ 1.46 µM) | MIC [29]: 8 µg/mL (≈ 11.7 µM) | MIC [30]: 8 µg/mL (≈ 11.7 µM) | MIC [31]: 8 µg/mL (≈ 11.7 µM) | MIC [32]: > 16 µg/mL | MIC [33]: 8 µg/mL (≈ 11.7 µM) | MIC [34]: 8 µg/mL (≈ 11.7 µM) | MIC [35]: 1 µg/mL (≈ 1.46 µM) | MIC [36]: 8 µg/mL (≈ 11.7 µM) | MIC [37]: 8 µg/mL (≈ 11.7 µM) | MIC [38]: 8 µg/mL (≈ 11.7 µM) | MIC [39]: 8 µg/mL (≈ 11.7 µM) | MIC [40]: > 16 µg/mL | MIC [41]: 1 µg/mL (≈ 1.46 µM)
Compound: CC1(C)[C@H](NC(=O)/C(=N\O[C@@H](COc2ccc3c(c2)CN(C(=N)NOCCN)C3)C(=O)O)c2csc(N)n2)C(=O)N1OS(=O)(=O)O [Compound 43]

Compound: C[C@@H](O)[C@H]1C(=O)N2C(C(=O)O)=C(S[C@@H]3CN[C@H](C(=O)N(C)C)C3)[C@H](C)[C@H]12 [Meropenem, reference compound]
MIC [1]: 64 µg/mL (≈ 167 µM) | MIC [2]: 64 µg/mL (≈ 167 µM) | MIC [3]: 64 µg/mL (≈ 167 µM) | MIC [4]: 32 µg/mL (≈ 83.4 µM) | MIC [5]: 64 µg/mL (≈ 167 µM) | MIC [6]: 64 µg/mL (≈ 167 µM) | MIC [7]: 32 µg/mL (≈ 83.4 µM) | MIC [8]: 64 µg/mL (≈ 167 µM) | MIC [9]: 64 µg/mL (≈ 167 µM) | MIC [10]: 64 µg/mL (≈ 167 µM) | MIC [11]: 4 µg/mL (≈ 10.4 µM) | MIC [12]: 4 µg/mL (≈ 10.4 µM) | MIC [13]: 4 µg/mL (≈ 10.4 µM) | MIC [14]: 64 µg/mL (≈ 167 µM) | MIC [15]: 2 µg/mL (≈ 5.22 µM) | MIC [16]: 64 µg/mL (≈ 167 µM) | MIC [17]: 64 µg/mL (≈ 167 µM) | MIC [18]: 16 µg/mL (≈ 41.7 µM) | MIC [19]: 16 µg/mL (≈ 41.7 µM) | MIC [20]: 64 µg/mL (≈ 167 µM) | MIC [21]: 1 µg/mL (≈ 2.61 µM) | MIC [22]: 2 µg/mL (≈ 5.22 µM) | MIC [23]: 128 µg/mL (≈ 334 µM) | MIC [24]: 64 µg/mL (≈ 167 µM) | MIC [25]: 32 µg/mL (≈ 83.4 µM) | MIC [26]: < 0.25 µg/mL | MIC [27]: 16 µg/mL (≈ 41.7 µM) | MIC [28]: < 0.25 µg/mL | MIC [29]: 8 µg/mL (≈ 20.9 µM) | MIC [30]: 64 µg/mL (≈ 167 µM) | MIC [31]: 16 µg/mL (≈ 41.7 µM) | MIC [32]: 64 µg/mL (≈ 167 µM) | MIC [33]: 32 µg/mL (≈ 83.4 µM) | MIC [35]: 1 µg/mL (≈ 2.61 µM) | MIC [36]: 64 µg/mL (≈ 167 µM) | MIC [37]: 32 µg/mL (≈ 83.4 µM) | MIC [38]: 4 µg/mL (≈ 10.4 µM) | MIC [39]: 64 µg/mL (≈ 167 µM) | MIC [40]: 128 µg/mL (≈ 334 µM) | MIC [41]: 16 µg/mL (≈ 41.7 µM)
